Data as given in the kinase profiling compilation of Christmann-Franck et al. (2016).

Key:
HIPK1 (human) = HIPK1 (human) (UniProt Q86Z02); assay: SelectScreen, TR FRET
HIPK2 (human) [1] = target: HIPK2 (human) (UniProt Q9H2X6); assay: SelectScreen, TR FRET
[2] = tested on: EGFR (human), P00533 [752-759 del]; assay: KINOMEscan competition binding; details: compound 10.0 µM
PIM1 (human) = PIM1 (human) (UniProt P11309); assay: SelectScreen, TR FRET
PIM2 (human) = PIM2 (human) (UniProt Q9P1W9); assay: SelectScreen, TR FRET
[3] = tested on: ABL1 (human), P00519 [M351T]; assay: KINOMEscan competition binding; details: compound 10.0 µM
ALK (human) = ALK (human) (UniProt Q9UM73); assay: KINOMEscan competition binding; details: compound 10.0 µM
BRAF (human) = BRAF (human) (UniProt P15056); assay: KINOMEscan competition binding; details: compound 10.0 µM
[4] = tested on: BRAF (human), P15056 [V600E]; assay: KINOMEscan competition binding; details: compound 10.0 µM
CDC42BPG (human) = CDC42BPG (human) (UniProt Q6DT37); assay: KINOMEscan competition binding; details: compound 10.0 µM
CDKL2 (human) = CDKL2 (human) (UniProt Q92772); assay: KINOMEscan competition binding; details: compound 10.0 µM
DDR1 (human) = DDR1 (human) (UniProt Q08345); assay: KINOMEscan competition binding; details: compound 10.0 µM
EPHA3 (human) = EPHA3 (human) (UniProt P29320); assay: KINOMEscan competition binding; details: compound 10.0 µM
EPHA3 (human), sequence (P29320 whole entry, looked up): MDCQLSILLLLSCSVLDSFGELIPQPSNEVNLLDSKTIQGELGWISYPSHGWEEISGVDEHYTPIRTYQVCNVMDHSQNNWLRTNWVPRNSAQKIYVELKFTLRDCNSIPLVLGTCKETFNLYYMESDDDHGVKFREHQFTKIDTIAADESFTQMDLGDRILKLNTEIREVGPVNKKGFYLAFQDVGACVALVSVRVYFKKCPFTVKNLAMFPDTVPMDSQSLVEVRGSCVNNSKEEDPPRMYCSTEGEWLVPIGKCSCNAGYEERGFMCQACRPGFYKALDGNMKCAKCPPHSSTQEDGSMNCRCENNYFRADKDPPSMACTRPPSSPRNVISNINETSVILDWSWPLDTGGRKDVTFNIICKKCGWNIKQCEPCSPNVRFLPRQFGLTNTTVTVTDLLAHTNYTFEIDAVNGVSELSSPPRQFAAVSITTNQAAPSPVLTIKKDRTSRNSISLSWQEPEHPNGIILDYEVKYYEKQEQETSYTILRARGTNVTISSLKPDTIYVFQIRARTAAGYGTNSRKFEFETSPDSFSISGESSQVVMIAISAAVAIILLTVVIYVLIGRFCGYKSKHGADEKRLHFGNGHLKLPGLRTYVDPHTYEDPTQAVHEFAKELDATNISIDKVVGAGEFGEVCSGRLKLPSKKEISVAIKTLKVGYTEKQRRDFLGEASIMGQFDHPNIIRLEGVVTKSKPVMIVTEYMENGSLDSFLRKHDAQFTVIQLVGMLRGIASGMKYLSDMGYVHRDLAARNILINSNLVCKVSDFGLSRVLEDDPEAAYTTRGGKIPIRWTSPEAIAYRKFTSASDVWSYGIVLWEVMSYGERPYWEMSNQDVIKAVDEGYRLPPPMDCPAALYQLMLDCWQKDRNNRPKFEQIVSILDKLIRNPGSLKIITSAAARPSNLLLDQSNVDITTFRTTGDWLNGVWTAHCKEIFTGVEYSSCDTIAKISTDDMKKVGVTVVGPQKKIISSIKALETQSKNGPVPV

MAP4K3 (human) = MAP4K3 (human) (UniProt Q8IVH8); assay: KINOMEscan competition binding; details: compound 10.0 µM
PAK3 (human) = PAK3 (human) (UniProt O75914); assay: KINOMEscan competition binding; details: compound 10.0 µM
PTK6 (human) = PTK6 (human) (UniProt Q13882); assay: KINOMEscan competition binding; details: compound 10.0 µM
RPS6KA3 KD1 (human) = RPS6KA3 KD1 (human) (UniProt P51812); assay: KINOMEscan competition binding; details: compound 10.0 µM
RPS6KA3 KD1 (human), sequence (P51812 whole entry, looked up): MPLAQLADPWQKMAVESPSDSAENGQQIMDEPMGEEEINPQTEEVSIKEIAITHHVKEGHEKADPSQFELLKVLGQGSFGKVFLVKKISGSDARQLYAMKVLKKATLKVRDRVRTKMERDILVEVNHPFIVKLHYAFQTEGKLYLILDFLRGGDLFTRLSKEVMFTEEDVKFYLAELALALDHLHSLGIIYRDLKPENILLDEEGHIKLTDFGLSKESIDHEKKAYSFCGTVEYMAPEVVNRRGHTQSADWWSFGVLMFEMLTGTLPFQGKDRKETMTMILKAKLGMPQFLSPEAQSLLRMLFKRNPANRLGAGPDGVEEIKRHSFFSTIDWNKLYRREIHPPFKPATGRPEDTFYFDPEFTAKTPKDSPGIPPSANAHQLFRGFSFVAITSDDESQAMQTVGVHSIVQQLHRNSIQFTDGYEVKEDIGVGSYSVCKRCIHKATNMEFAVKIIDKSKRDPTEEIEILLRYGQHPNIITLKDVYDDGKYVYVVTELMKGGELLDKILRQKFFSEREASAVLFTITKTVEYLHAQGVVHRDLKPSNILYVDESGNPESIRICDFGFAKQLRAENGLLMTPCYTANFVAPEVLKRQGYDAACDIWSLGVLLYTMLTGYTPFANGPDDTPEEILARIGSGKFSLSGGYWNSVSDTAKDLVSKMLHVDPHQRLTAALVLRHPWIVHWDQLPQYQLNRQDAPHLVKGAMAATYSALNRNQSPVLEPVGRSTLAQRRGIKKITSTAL

STK25 (human) = STK25 (human) (UniProt O00506); assay: KINOMEscan competition binding; details: compound 10.0 µM
STK25 (human), sequence (O00506 whole entry, looked up): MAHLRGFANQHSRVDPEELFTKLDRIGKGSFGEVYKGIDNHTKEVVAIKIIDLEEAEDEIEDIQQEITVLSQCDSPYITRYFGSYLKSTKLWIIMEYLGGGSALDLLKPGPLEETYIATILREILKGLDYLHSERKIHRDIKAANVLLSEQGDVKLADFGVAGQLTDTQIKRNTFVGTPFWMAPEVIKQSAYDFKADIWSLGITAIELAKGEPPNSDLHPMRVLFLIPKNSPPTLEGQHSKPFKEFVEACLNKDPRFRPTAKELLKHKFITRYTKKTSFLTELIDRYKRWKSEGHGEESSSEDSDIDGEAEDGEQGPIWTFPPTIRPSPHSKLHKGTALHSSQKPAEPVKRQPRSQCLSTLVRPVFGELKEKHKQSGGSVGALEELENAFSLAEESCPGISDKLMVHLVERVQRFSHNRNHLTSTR

TIE1 (human) = TIE1 (human) (UniProt P35590); assay: KINOMEscan competition binding; details: compound 10.0 µM
DYRK1A (human) = DYRK1A (human) (UniProt Q13627); assay: KINOMEscan competition binding
DYRK2 (human) = DYRK2 (human) (UniProt Q92630); assay: KINOMEscan competition binding
HIPK2 (human) [5] = target: HIPK2 (human) (UniProt Q9H2X6); assay: KINOMEscan competition binding
AURKB (human) = AURKB (human) (UniProt Q96GD4); assay: SelectScreen, TR FRET
AURKC (human) = AURKC (human) (UniProt Q9UQB9); assay: SelectScreen, TR FRET

HIPK1 (human), sequence (Q86Z02 whole entry, looked up): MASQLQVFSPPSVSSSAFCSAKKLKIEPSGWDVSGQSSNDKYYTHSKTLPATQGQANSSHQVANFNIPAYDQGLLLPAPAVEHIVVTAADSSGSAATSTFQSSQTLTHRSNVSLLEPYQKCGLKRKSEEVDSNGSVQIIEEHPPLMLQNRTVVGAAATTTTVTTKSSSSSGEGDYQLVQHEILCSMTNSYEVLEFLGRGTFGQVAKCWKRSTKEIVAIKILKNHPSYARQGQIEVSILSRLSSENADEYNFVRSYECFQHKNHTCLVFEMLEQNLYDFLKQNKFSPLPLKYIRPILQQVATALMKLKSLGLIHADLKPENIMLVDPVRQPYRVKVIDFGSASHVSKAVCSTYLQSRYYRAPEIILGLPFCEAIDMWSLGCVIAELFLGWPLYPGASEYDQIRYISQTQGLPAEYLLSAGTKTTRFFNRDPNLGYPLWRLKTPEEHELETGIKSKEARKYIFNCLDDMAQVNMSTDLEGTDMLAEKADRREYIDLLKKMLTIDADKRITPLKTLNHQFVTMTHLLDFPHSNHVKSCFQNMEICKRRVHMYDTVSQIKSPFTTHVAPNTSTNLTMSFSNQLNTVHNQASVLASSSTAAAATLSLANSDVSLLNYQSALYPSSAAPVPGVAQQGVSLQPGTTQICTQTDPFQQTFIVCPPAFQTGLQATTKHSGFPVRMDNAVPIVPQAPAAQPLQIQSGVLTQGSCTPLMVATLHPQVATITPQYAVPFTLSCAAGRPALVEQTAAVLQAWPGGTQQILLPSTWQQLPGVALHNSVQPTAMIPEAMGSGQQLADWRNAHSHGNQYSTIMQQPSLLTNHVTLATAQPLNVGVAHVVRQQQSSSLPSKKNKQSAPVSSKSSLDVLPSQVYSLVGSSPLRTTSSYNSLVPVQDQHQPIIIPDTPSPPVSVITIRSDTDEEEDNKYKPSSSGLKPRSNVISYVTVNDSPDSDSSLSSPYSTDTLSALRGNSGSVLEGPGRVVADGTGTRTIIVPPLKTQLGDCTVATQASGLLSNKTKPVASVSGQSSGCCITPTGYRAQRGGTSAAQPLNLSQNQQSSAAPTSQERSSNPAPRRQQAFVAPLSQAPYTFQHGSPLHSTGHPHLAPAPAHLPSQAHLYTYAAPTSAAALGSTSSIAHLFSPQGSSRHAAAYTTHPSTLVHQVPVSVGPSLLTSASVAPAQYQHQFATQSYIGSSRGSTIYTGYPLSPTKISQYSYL
HIPK2 (human), sequence (Q9H2X6 whole entry, looked up): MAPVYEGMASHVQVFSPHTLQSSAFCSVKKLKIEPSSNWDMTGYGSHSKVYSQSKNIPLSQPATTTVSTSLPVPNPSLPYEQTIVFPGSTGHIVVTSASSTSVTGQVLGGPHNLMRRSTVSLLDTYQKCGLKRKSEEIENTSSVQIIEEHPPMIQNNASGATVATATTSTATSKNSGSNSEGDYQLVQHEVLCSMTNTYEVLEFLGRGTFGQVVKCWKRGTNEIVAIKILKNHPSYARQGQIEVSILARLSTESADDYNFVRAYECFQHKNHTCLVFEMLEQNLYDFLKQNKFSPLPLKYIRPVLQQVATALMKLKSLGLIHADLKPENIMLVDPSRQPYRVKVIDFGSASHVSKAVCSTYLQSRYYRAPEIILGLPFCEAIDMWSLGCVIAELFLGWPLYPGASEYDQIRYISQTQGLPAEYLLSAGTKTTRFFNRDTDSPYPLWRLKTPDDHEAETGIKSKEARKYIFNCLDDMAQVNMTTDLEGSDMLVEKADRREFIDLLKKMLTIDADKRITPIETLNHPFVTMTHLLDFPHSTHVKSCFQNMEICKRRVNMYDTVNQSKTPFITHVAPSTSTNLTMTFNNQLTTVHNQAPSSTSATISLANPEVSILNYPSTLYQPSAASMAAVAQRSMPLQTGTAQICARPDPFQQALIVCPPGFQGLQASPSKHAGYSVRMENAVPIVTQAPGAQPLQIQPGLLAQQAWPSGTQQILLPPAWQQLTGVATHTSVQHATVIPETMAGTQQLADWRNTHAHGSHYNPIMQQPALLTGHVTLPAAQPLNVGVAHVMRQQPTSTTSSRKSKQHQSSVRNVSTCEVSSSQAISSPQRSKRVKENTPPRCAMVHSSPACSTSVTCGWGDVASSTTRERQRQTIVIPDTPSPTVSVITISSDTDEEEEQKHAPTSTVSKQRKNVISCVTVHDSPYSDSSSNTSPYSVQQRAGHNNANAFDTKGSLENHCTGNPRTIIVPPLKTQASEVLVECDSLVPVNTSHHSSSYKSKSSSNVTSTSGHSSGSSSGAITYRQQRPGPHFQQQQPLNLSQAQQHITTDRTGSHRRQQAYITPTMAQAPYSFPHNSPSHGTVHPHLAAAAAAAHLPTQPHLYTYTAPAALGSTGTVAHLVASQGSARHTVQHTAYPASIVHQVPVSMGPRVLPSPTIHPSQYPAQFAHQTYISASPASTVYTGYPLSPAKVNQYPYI
PIM1 (human), sequence (P11309 whole entry, looked up): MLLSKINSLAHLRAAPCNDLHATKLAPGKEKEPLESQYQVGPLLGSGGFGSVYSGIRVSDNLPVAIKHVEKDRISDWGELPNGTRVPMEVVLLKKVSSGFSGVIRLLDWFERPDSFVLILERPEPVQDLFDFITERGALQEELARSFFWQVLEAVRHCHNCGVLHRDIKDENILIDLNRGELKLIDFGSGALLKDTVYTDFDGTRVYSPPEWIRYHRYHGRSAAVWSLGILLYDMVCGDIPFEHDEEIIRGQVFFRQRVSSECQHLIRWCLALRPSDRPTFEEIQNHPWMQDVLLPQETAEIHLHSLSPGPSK

| kinase still bound, per cent of control [2] | kinase still bound, per cent of control [3] | kinase still bound, per cent of control (ALK (human)) | kinase still bound, per cent of control (CDC42BPG (human)) | kinase still bound, per cent of control (CDKL2 (human)) | kinase still bound, per cent of control (DDR1 (human)) | kinase still bound, per cent of control (EPHA3 (human)) | kinase still bound, per cent of control (MAP4K3 (human)) | kinase still bound, per cent of control (PAK3 (human)) | kinase still bound, per cent of control (PTK6 (human)) | kinase still bound, per cent of control (RPS6KA3 KD1 (human)) | kinase still bound, per cent of control (STK25 (human)) | kinase still bound, per cent of control (TIE1 (human)) | SMILES | other results |
| --- | --- | --- | --- | --- | --- | --- | --- | --- | --- | --- | --- | --- | --- | --- |
|  |  |  |  |  |  |  |  |  |  |  |  |  | CS(=O)(=O)Nc1ccc(-c2cc(/C=C3\SC(=N)NC3=O)c[nH]c2=O)cc1 | IC50 (HIPK1 (human)): 1160 nM; IC50 (HIPK2 (human) [1]): 300 nM |
| 14% |  |  |  |  |  |  |  |  |  |  |  |  | Nc1cccc(-c2cc(/C=C3\SC(=O)NC3=O)c[nH]c2=O)c1 | IC50 (HIPK1 (human)): 244 nM; IC50 (HIPK2 (human) [1]): 166 nM |
|  |  |  |  |  |  |  |  |  |  |  |  |  | N=C1NC(=O)/C(=C/c2ccc(-c3ccc(C(N)=O)cc3O)o2)S1 | IC50 (PIM1 (human)): 32 nM; IC50 (PIM2 (human)): 57 nM |
| 92% | 3% | 100% | 100% | 100% | 68% | 83% | 45% | 37% | 86% | 85% | 96% | 59% | CN1C(=O)c2ccccc2N(C)c2nc(Nc3ccc(N4CCC(O)CC4)cc3)ncc21 | kinase still bound, per cent of control (BRAF (human)): 94%; kinase still bound, per cent of control [4]: 100% |
|  |  |  |  |  |  |  | 32% |  |  |  |  |  | CS(=O)(=O)Nc1ccc(-c2cncc(/C=C3\SC(=N)NC3=O)c2)cc1 | kinase still bound, per cent of control (BRAF (human)): 32%; kinase still bound, per cent of control [4]: 34% |
| 95% | 49% | 54% | 88% | 67% | 100% | 67% | 53% | 86% | 83% | 42% | 77% | 64% | O=C1NC(=O)/C(=C/c2c[nH]c(=O)c(-c3ccc(N4CCNCC4)nc3)c2)S1 | Kd (DYRK1A (human)): 8.8 nM; Kd (DYRK2 (human)): 250 nM; Kd (HIPK2 (human) [5]): 9.5 nM; IC50 (HIPK1 (human)): 136 nM; IC50 (HIPK2 (human) [1]): 74 nM |
| 100% | 96% | 100% | 100% | 100% | 100% | 97% | 100% | 76% | 100% | 100% | 100% | 100% | CN1C(=O)c2ccccc2N(C)c2nc(NS(=O)(=O)c3ccc(N)cc3)ncc21 |  |
|  |  |  |  |  |  |  |  |  |  |  |  |  | N=C1NC(=O)/C(=C/c2ccc(-c3ccc(F)cc3O)o2)S1 | IC50 (PIM1 (human)): 110 nM; IC50 (PIM2 (human)): 96 nM |
|  |  | 32% |  |  | 33% |  |  |  |  |  |  |  | N=C1NC(=O)/C(=C/c2ccc(-c3csc4ccccc34)o2)S1 | IC50 (PIM1 (human)): 3270 nM; IC50 (PIM2 (human)): 628 nM |
| 100% | 78% | 11% | 100% | 81% | 93% | 81% | 100% | 93% | 32% | 92% | 89% | 70% | COc1cc(N2CCN(C)CC2)ccc1Nc1ncc2c(n1)N(C)c1ccccc1N(C)C2=O |  |
| 81% | 93% | 36% | 100% | 100% | 100% | 72% | 66% | 58% | 100% | 55% | 99% | 94% | COc1cc(N2CCC(O)CC2)ccc1Nc1ncc2c(n1)N1CCc3cccc(c31)C(=O)N2C |  |
| 100% | 100% | 100% | 100% | 100% | 100% | 100% | 100% | 79% | 100% | 100% | 100% | 100% | CN1CCN(c2ccc(C(=O)Nc3ncc4c(n3)N(C)c3ccccc3C(=O)N4C)cc2)CC1 |  |
|  | 26% |  |  |  |  |  |  |  |  |  |  |  | CS(=O)(=O)Nc1ccc(-c2ncc(/C=C3\SC(=N)NC3=O)s2)cc1 |  |
| 78% | 82% | 44% | 91% | 100% | 100% | 71% | 79% | 100% | 56% | 99% | 80% | 93% | COc1cc(N2CCN(C)CC2)ccc1Nc1ncc2c(n1)N(C)c1sccc1C(=O)N2C |  |
| 69% | 15% | 53% | 100% | 9.5% | 81% | 61% | 100% | 82% | 82% | 72% | 84% | 24% | COc1cc(N2CCN(C)CC2)ccc1Nc1ncc2c(n1)Nc1ccccc1NC2=O |  |
|  |  |  |  |  |  | 13% |  |  |  |  | 18% |  | N=C1NC(=O)/C(=C/c2ccc(-c3cncc4ccccc34)o2)S1 | IC50 (AURKB (human)): 29 nM; IC50 (AURKC (human)): 154 nM |
|  |  |  |  |  |  |  |  |  |  |  |  |  | N=C1NC(=O)/C(=C/c2c[nH]c(=O)c(-c3ccc(N4CCNCC4)nc3)c2)S1 | IC50 (HIPK1 (human)): 507 nM; IC50 (HIPK2 (human) [1]): 289 nM |
|  |  | 30% |  |  |  | 17% |  |  |  |  | 20% |  | O=C1NC(=S)S/C1=C\c1ccc(-c2cncc3ccccc23)o1 | IC50 (PIM1 (human)): 284 nM; IC50 (PIM2 (human)): 92 nM |
|  |  |  |  |  |  |  |  |  |  |  |  |  | N=C1NC(=O)/C(=C/c2ccc(-c3ccccc3O)o2)S1 | IC50 (PIM1 (human)): 94 nM; IC50 (PIM2 (human)): 114 nM |
|  |  |  |  |  |  |  |  |  |  |  |  |  | CSC1=NC(=O)/C(=C/c2c[nH]c(=O)c(-c3ccc(NS(C)(=O)=O)cc3)c2)S1 | IC50 (HIPK1 (human)): 1960 nM; IC50 (HIPK2 (human) [1]): 618 nM |
